The source of these data is ChEMBL document CHEMBL1201862, “PubChem BioAssay data set” (2004).

Test systems include Hs-578T; HCT-15; RXF 393; SNB-75; COLO 205; SK-MEL-2; IGROV-1; SNB-19; HOP-62; DU-145; T47D; HL-60; SN12C; NCI-H23; SW-620; HT-29; A549; M14; SK-OV-3; MDA-MB-231.
Common to all, as to experiment: NCI anticancer screen, dose series, 48 h

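1) Cells in 96-well plates. 2) Compound, 48 h, 5 concentrations. 3) Linear interpolation between surrounding doses. 4) Unreached endpoint = highest concentration. GI50 is the concentration that inhibits growth by half.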 The source made the active and inactive calls. Rule as the data show it: active = GI50 up to about 1.1 µM and inactive = higher.

On to `COC(=O)N1CC[C@@H]2CCC=C(c3cccc4c3OCO4)[C@@H]21`, for which the GI50 with Hs-578T is > 100 µM (inactive); in the assay on HCT-15, 93.3 µM; in the assay with RXF 393, > 100 µM (inactive); in the assay on SNB-75, 17.7 µM (inactive); with COLO 205, > 100 µM (inactive); in the assay on SK-MEL-2 it was > 100 µM (inactive). The GI50 in the assay with IGROV-1 was > 100 µM (inactive); with SNB-19 it was 74.3 µM (inactive); in the assay on HOP-62, > 100 µM (inactive); in the assay on DU-145, > 100 µM (inactive); in the assay with T47D it was 32.1 µM (inactive); with HL-60, 30.9 µM (inactive). In addition, the GI50 was > 100 µM (inactive) in the assay with SN12C; > 100 µM (inactive) in the assay with NCI-H23; > 100 µM (inactive) in the assay with SW-620; 79.6 µM (inactive) in the assay on HT-29; > 100 µM (inactive) in the assay with A549; > 100 µM (inactive) with M14. Further, the GI50 with SK-OV-3 and in the assay with MDA-MB-231 was > 100 µM (inactive) throughout.

For `CC1=C(C(=O)OC2CC3CCC2(C)C3(C)C)C2Nc3ccccc3N(C)C2O1` (stereo not given), the GI50 in the assay on Hs-578T is 3.26 µM (inactive); in the assay with HCT-15, 2.01 µM; in the assay on RXF 393, 2.63 µM (inactive); in the assay on SNB-75, 3.43 µM (inactive); in the assay on COLO 205, 0.918 µM (active); with SK-MEL-2 it was 2.35 µM (inactive). For the same compound, the GI50 was 1.77 µM (inactive) in the assay on IGROV-1; 3.48 µM (inactive) in the assay on SNB-19; 3.84 µM (inactive) in the assay with HOP-62; 1.47 µM (inactive) with DU-145; 3.04 µM (inactive) with T47D; 2.1 µM (inactive) in the assay on HL-60. For the same compound, the GI50 in the assay on SN12C is 1.78 µM (inactive); in the assay on NCI-H23, 2.39 µM (inactive); with SW-620, 2.14 µM (inactive); in the assay with HT-29, 1.56 µM (inactive); in the assay with A549 it was 2.05 µM (inactive); in the assay on M14 it was 1.63 µM (inactive). In addition, the GI50 with SK-OV-3 is 4.43 µM (inactive); in the assay on MDA-MB-231 it was 3.01 µM (inactive).
